A short description of series [1]: Toxicology and safety pharmacology studies in rats. The settings on record: Sprague–Dawley rats, data not shown.
Series [2] has as its system ID8 Trp53−/− Brca2−/− ovarian carcinoma cells. The settings on record: mouse, in vivo, 10 mg/kg.
Description: After 5 (IP model) or 10 (SC model) weeks of tumor growth, mice received an IV bolus dose of TAX2-Cy5 at 10 mg/kg BW in injectable saline solution. After in vivo imaging and mouse euthanasia, subcutaneous tumor or peritoneal tumor mass and metastatic nodules, were collected and imaged with instrument sensitivity set to “Normal” using the same protocol as described above for healthy mice. TAX2-Cy5 concentration was calculated as described above.
Series [3] relates to ID8 Trp53−/− Brca2−/− cells. Put plainly: TAX2 efficacy alone or in sequential combination with olaparib, metastatic peritoneal carcinomatosis model. It counts as in vivo, C57BL/6 J mice. The settings on record: for Mouse survival, prolonged olaparib design: from day 7 post inoculation olaparib 50 mg/kg per os daily 5 weeks, then TAX2 30 mg/kg IV three times a week, n = 7–11 per group, p = 0.0014 post discontinuation, median survival p = 0.0205; for Animal survival versus controls (Kaplan–Meier): same regimens as Fig. 6b, Gehan–Breslow–Wilcoxon test, TAX2 p = 0.0347 vs controls; for Median survival: treatment from day after IP inoculation, TAX2 30 mg/kg IV 3 times weekly for 6 weeks or olaparib 50 mg/kg per os daily for 2 weeks, n = 9–19 per group, end point 20% body weight gain. The method, then:
Eight-week-old C57BL/6 J mice were IP injected with 2 × 10^6 ID8 Trp53^−/− Brca2^−/− cells in 300 µL HBSS. For mouse treatments, TAX2 peptide was IV injected at 30 to 100 mg/kg, three times a week; olaparib (catalog no. M1664, AbMole, TX, USA) was given per os at a 50 mg/kg BW dose, daily. Two different sequential treatments were performed. In the first one, mice were treated one day after tumor inoculation with olaparib for 2 weeks followed by 4 weeks of TAX2. In the second one, mice were randomized 7 days after tumor inoculation and first treated with olaparib daily for 5 weeks or an identical volume of olaparib vehicle composed of 10% (2-hydroxypropyl)-β-cyclodextrin and 10% DMSO in D-PBS buffer. Mice were then sequentially treated with TAX2 for a maximum of 3 weeks. […] Mice were weighed twice or thrice a week and abdominal distension was measured using a digital caliper. Tumor burden was monitored using body weight change as a measure of ascitic fluid buildup post inoculation as previously described in the same model. Gain of 20% body weight was considered as the end point for survival analysis. In this orthotopic model, it is impossible to determine whether the absence of tumor uptake is treatment related or not. Therefore, mice showing no signs of tumor development (carcinosis, nodules, or ascites) at the time of euthanasia were excluded to avoid misinterpretation of the results.
Two-tailed Pearson and Spearman tests were used to assess the correlation between two linear or monotonic variables, respectively, and Mann–Whitney test was used where appropriate. Mouse survival curves were generated using Kaplan–Meier analysis with Gehan–Breslow–Wilcoxon tests as previously reported for ID8 syngeneic model. All graphs and statistics were generated with Prism (GraphPad Software, La Jolla, CA) using the statistical tests and sample sizes indicated in the figure legends.

A short description of series [4]: Toxicology and safety pharmacology studies in dogs. The settings on record: beagle dogs, data not shown.

Consider two compounds from paper PMC11323699, “The CD47/TSP-1 axis: a promising avenue for ovarian cancer treatment and biomarker research” (Molecular Cancer, 2024).

In the case of `CC(C)C[C@@H]1NC(=O)[C@H](CC(C)C)NC(=O)[C@H](CCC(N)=O)NC(=O)[C@H](CO)NC(=O)[C@H](C(C)C)NC(=O)[C@H](CCC(=O)O)NC(=O)[C@@H](N)CSSC[C@@H](C(=O)O)NC(=O)[C@H](C)NC(=O)[C@H](CC(=O)O)NC(=O)CNC(=O)[C@H](CCCCN)NC1=O` [TAX2], the “Tolerability after systemic administration” value in series [1] is recorded as “very well tolerated”. For the same compound, in series [2], the “Localization at tumor sites” value is given as “localization of TAX2 at tumor sites”. Also, the “Mice surviving for the duration of the experimental protocol (weak peritoneal carcinomatosis)” value in series [3] (TAX2 30 mg/kg IV 3 times weekly for 6 weeks) was 1 out of 9. Besides, in series [3], the “Mouse survival, prolonged olaparib design” value is reported as “further improved survival” and the “Animal survival versus controls (Kaplan–Meier)” value is “modestly but significantly extended the survival rate”. Moreover, the Median survival in series [3] (control 38 days) was determined as 44 days. Further, the “Tolerability after systemic administration” value in series [4] was “very well tolerated”.
Turning to `O=C(c1cc(Cc2n[nH]c(=O)c3ccccc23)ccc1F)N1CCN(C(=O)C2CC2)CC1` [olaparib], in series [3], the “Mouse survival, prolonged olaparib design” value is on record as “increased mouse survival” and the “Animal survival versus controls (Kaplan–Meier)” value is on record as “failed to improve animal survival”. For the same compound, the “Mice exhibiting no response to olaparib (tumor burden)” value in series [3] (olaparib 50 mg/kg per os daily for 2 weeks, n = 20, tumor burden by body weight change) is 75%. Further, the “Median survival of olaparib-resistant mice” value in series [3] (olaparib alone 50 mg/kg per os daily for 2 weeks, unresponsive mice n = 14, control 38 days) was found to be 41 days. The Median survival in series [3] (control 38 days) turned out to be 43 days.
